Results taken from patent publication US6565876B1, “Carnitine and inositol phosphate-containing composition useful as dietary supplement or drug” (Sigma-Tau HealthScience S.p.A., priority 1999, dated 2003).

Assays:
[1] = system: muscle lipoperoxidation (malondialdehyde); test: Muscle fatigue test, forced muscular exercise on moving belt, MDA in gastrocnemius muscle; format: in vivo, rats; settings: propionyl L-carnitine 200 mg/kg, IP6 100 mg/kg, three days before exercise; for MDA content in muscle after 5 min: gastrocnemius muscle 5 min after end of exercise; for MDA content in muscle after 30 min: gastrocnemius muscle 30 min after end of exercise
Description: Forced muscular exercise was tested in various groups of rats by making them run on a moving belt at controlled speed and angle of tilt, as described by Li (Li J. X., Acta Pharmacologica Sinica, 20:126, 1999) and Husain (Husain K., Pathophysiology, 4:69, 1997). The animals were made to run on an approximately 5° slope and at a belt speed of 28 m/min. The animals' stamina reached the point of exhaustion after approximately 85 min of exercise. The test was carried out in groups of animals which, during the three days preceding exercise, received 200 mg/kg of propionyl L-carnitine or 100 mg/kg of IP6 alone or in combination. Five and thirty minutes, respectively, after the end of exercise, samples of gastrocnemius muscle were taken from the sacrificed animals and used for measuring the malondialdehyde (MDA) content as a marker for the level of lipoperoxidation by means of reaction with thiobarbituric acid according to the method described by Ohkawa (Ohkawa H., Anal. Biochem., 95:351, 1979).

chick cerebral neurons = test: Neuronal hypoxia, NaCN-induced, ATP assay; format: cell-based; settings: propionyl L-carnitine 100 mg/L, IP6 50 mg/L; for ATP after reoxygenation time 0 / ATP after reoxygenation time 30 min: NaCN 1 mmol/L for 120 min; for ATP after reoxygenation time 0: reoxygenation 0; for ATP after reoxygenation time 30 min: reoxygenation 30 min
Description: To assess the protective activity of the composition according to the invention on hypoxia-induced damage at the neuronal level, tests were performed on cultures of chick cerebral neurons in which the reduction in cell respiration was induced by introducing NaCN into the cultures. […] The chick cerebral neuron cultures were prepared according to the technique described by […]., Nature, 281:378, 1979). Cytotoxic hypoxia was induced by adding NaCN to the culture medium to a final concentration of 1 mmol/L. After 120 min the medium was replaced by an NaCN-free medium, and the metabolism of the cells was blocked by washing with an iced buffer solution. The ATP assay was performed according to the procedure described by Werner (Werner A. J., Chromatogr. Biomed. Appl., 421:257, 1987).

[2] = system: collagen-induced type II arthritis; test: Collagen-induced arthritis test; format: in vivo; settings: mice; 200 mg/kg each, oral, from day of collagen injection to end of sixth week; oedema scores 1 to 4
Description: Confirmation of the anti-inflammatory effects of the composition according to the invention was obtained using as a test collagen-induced type II arthritis according to the technique described by […]. Exp. Med., 146:857, 1977). In this test, a group of mice were immunised by intradermal injection at the base of the tail of 100 μg of natural collagen emulsified in Freund complete adjuvant (Difco Labs., Detroit, USA). After three weeks, the animals thus treated were again injected intraperitoneally with the same dose of emulsified collagen. The treatment with propionyl […] (200 mg/kg) or with inositol hexaphosphate (200 mg/kg) or with the two compounds in combination was administered orally from the day of collagen injection up to the end of the sixth week. One group of animals received no treatment and served as a control group. The intensity of the oedema was assessed by assigning scores from 1 to 4.

[3] = system: swimming endurance in forced swimming; test: Swimming endurance test; format: in vivo, mice; settings: propionyl L-carnitine 200 mg/kg, IP6 100 mg/kg, oral on the three days preceding the test
Description: Since IP6, which is rich in phosphate groups, is a useful energy reserve, a series of tests were performed to establish whether its administration may increase the swimming endurance time in mice submitted to forced swimming in a rectangular tank full of water, according to the technique described by Zheng (Zheng R. L., Acta Pharmacol. Sinica, 14:47, 1993) and whether its effect could be enhanced by using it in combination with a carnitine, such as, for instance, propionyl L-carnitine. The tests were performed on various groups of animals treated with propionyl L-carnitine (200 mg/kg) or with IP6 (100 mg/kg) alone or with the two compounds in combination. The compounds were administered orally on the three days preceding the test. In the animals thus treated, swimming endurance time was measured as compared to control animals.

[4] = system: atherosclerotic vascular lesions of the abdominal aorta; test: Anti-atherosclerotic activity, atherogenic diet; format: in vivo, male Wistar rats; settings: rats; atherogenic diet six weeks; daily 150 mg/kg propionyl carnitine, 100 mg/kg IP6
Description: […] according to the regimen proposed by Melinow (Melinow M. R., Atherosclerosis, 48:105, 1983). At the end of the sixth week of treatment, marked atherosclerotic vascular lesions had formed which were particularly pronounced at the abdominal aorta level. The severity of these lesions was evaluated by a morphometric method, measuring the thickness of the abdominal aorta and the intensity of the staining induced by Sudan IV with a progressive scoring system from 1 to 5. In these tests, the rats received daily administrations of 150 mg/kg of propionyl carnitine and 100 mg/kg of IP6, together with their atherogenic diets.

[5] = system: platelets from healthy volunteers; test: Anti-platelet aggregation activity (collagen-induced, Born method); format: cell-based, human; settings: collagen 2.5 and 5 ng/mL, 10 min incubation, IP6 4 and 8 ng/mL
Description: The anti-platelet-aggregation activity of the composition according to the invention was assessed in blood samples from healthy volunteers. […] The aggregating agent used was collagen (2.5 ng/mL, 5 ng/mL) and the aggregation induced was measured photometrically according to the method described by Born (Born G. V., Nature, 194:927, 1962). […] The doses of propionyl L-carnitine used were 10 ng and 20 ng/mL, while the IP6 doses were 4 ng and 8 ng/mL.

[6] = system: carrageenin-induced oedema of the rat paw; test: Carrageenin oedema test; format: in vivo; settings: 250 mg/kg each, oral
Description: To assess the anti-inflammatory effect of the new composition the carrageenin oedema test was used, in which rat paws are injected with carrageenin. The injection of 0.1 mL of 1% carrageenin solution (Sigma Chemical, St. Louis, Mo., USA) in the subplantar area of the rat's right paw induced marked oedema of the paw which reached its maximum intensity 4-5 hours after injection. The oedema was measured by mercury plethysmography at various different time intervals up to the fourth hour after carrageenin injection. Both propionyl L-carnitine (250 mg/kg) and IP6 (250 mg/kg) were administered orally half an hour prior to the subplantar carrageenin injection.

ornithine decarboxylase = test: Antiproliferative activity, teleocidin-induced ornithine decarboxylase in epidermis; format: in vivo, mice
[7] = rat paw oedema, half an hour before carrageenin
[8] = mouse epidermis 5 h after teleocidin 5 μg/mouse s.c., oral pretreatment propionyl L-carnitine 200 mg/kg, IP6 100 mg/kg

Row | Compound | MDA content in muscle after 5 min [1] | MDA content in muscle after 30 min [1] | muscle lipoperoxidation in muscle homogenate (in words) [1] | ATP after reoxygenation time 0 (chick cerebral neurons) [nmol g protein] | ATP after reoxygenation time 30 min (chick cerebral neurons) [nmol g protein] | ATP levels after anoxia and reoxygenation (in words) (chick cerebral neurons; NaCN 1 mmol/L) | oedema inhibition [2] | Swimming time [3] [min] | mean swimming endurance time versus controls (in words) [3] | protective effect against atherosclerotic lesions (morphometric examination and Sudan IV staining) [4] | aggregating action of collagen, reduced to [5] [%] | % inhibition after 1 h ([6]; rat paw oedema, half an hour before carrageenin, 1 h) [%] | % inhibition after 2 h [6, 7] [%] | % inhibition after 4 h [6, 7] [%] | inhibitory action on the inflammatory reaction induced by carrageenin (in words) ([6]; rat) | Ornithine decarboxylase activity (ornithine decarboxylase; [8]) | reduction of the teleocidin-induced increase in ornithine decarboxylase activity (in words) (ornithine decarboxylase; oral pretreatment propionyl L-carnitine 200 mg/kg, IP6 100 mg/kg) | inhibition of the aggregating action of collagen ([5]; propionyl L-carnitine 10 and 20 ng/mL) | Ornithine decarboxylase activity (ornithine decarboxylase; mouse epidermis 5 h after teleocidin 5 μg/mouse s.c. alone, no pretreatment)
1 | O=P(O)(O)O[C@H]1[C@H](OP(=O)(O)O)[C@@H](OP(=O)(O)O)[C@H](OP(=O)(O)O)[C@@H](OP(=O)(O)O)[C@H]1OP(=O)(O)O [IP6, inositol hexaphosphate] | 200 ± 16 nmol/g (WW) | 205 ± 8 nmol/g (WW) | capable of reducing the levels of muscle lipoperoxidation | 12.4 ± 2.1 | 16.9 ± 1.9 | a lesser reduction of ATP levels is observed as well as more rapid restoration of ATP levels | approximately 20% | 136 ± 16 | slightly increased | only a slight protective effect | 40 | 15 ± 1.1 | 20 ± 2.1 | 15 ± 0.6 | slight inhibitory action | 1.95 ± 0.2 nMol of CO2/60 min/mg protein | significantly reduced |  | 
2 | CCC(=O)OC(CC(=O)[O-])C[N+](C)(C)C [Propionyl L-carnitine, propionyl L-carnitine] | 210 ± 10 nmol/g (WW) | 212 ± 14 nmol/g (WW) |  | 11.1 ± 1.6 | 16.3 ± 2.2 |  | no inhibitory effect | 116 ± 19 |  |  |  |  | 15 ± 0.3 | 8 ± 0.9 |  | 2.1 ± 0.2 nMol of CO2/60 min/mg protein |  | does not inhibit | 
3 | teleocidin |  |  |  |  |  |  |  |  |  |  |  |  |  |  |  |  |  |  | 2.6 ± 0.4 nMol of CO2/60 min/mg protein
